Experimental findings from patent US20260272908A1 (VANDERBILT UNIVERSITY, priority 2023, published 2026) are described below.

In one experiment the test system is Wnt-target genes. Briefly: Real-time PCR for Wnt-target genes in Meta4 organoids. Particulars: pyrvinium 100 nM. The experiment is classed as cell-based, mouse. How it is done:
Mean±SD. One-way ANOVA with Tukey's multiple comparisons.
(§1) Total RNAs were extracted from Meta3 or Meta4 organoids using the Trizol (Invitrogen) reagent. cDNAs were synthesized using iScript gDNA clear cDNA synthesis kit (Bio-Rad) and RT-PCR was performed using SsoAdvanced™ Universal SYBR Green supermix (Bio-Rad) and a CFX96 Real-Time PCR Detection System (Bio-Rad). GAPDH, a house keeping gene, was used to normalize gene expression levels. All reactions were performed in triplicate and relative gene expression levels were obtained by the comparative ΔΔCt method using CFX Maestro software (Bio-Rad).
Background: In qPCR the cycle at which signal appears reflects the starting amount.

In a further experiment the test system is Mist1-Kras mice. Briefly: Pyrvinium treatment of Mist1-Kras mice (metaplasia progression to dysplasia, gastric corpus histology and immunostaining). Particulars: pyrvinium 2 weeks, qRT-PCR. The format is in vivo, mouse.
The subject of the next experiment is phospho-ERK (p-ERK). The experiment can be described thus: Western blot for phospho-ERK in Meta3 and Meta4 organoids. The experiment is classed as cell-based, mouse. Here is the method: (§2) FIG. 3C-3D show the Western blot analysis for p-STAT3 and p-ERK in Meta3 and Meta4 organoids (FIG. 3C) and ratios of p-STAT3/total STAT3 and p-ERK/total ERK (FIG. 3D). […] FIG. 3F-3G show phase-contrast images of Meta4 organoids treated with DMSO, Pyr (100 nM), STAT3-IN-1 (1 μM), Stattic (2 μM), and Cryptotanshinone (CPT) (5 μM) for 3 days (FIG. 3F), and quantitation of organoid diameters before and after treatment (FIG. 3G). FIG. 3H-3I show phase-contrast images of Meta4 organoids treated with DMSO, trametinib (Tra), STAT3-IN-1, combination of Tra and STAT3-IN-1, and Pyr, for 3 days (FIG. 3H), and quantitation of organoid diameters before and after treatment (FIG. 3I). FIG. 3J-3K show western blot for p-STAT3 and p-ERK after treatment of Tra, Pyr, and SSTC3 (FIG. 3J) and ratios of p-STAT3/t-STAT3 and p-ERK/t-ERK (FIG. 3K). […] Relative quantification of each gene expression level was normalized to GAPDH gene expression. Shading scale represents the mRNA expression values. FIG. 3M show representative mRNA of Pim-1 and Cyclin-B1 after treatment. Mean±standard deviation. […] Scale bar=500 μM.
Total proteins were extracted from organoids using radioimmunoprecipitation assay buffer (10 mmol/L Tris-HC, pH 7.2, 150 mmol/L NaCl, 5 mmol/L EDTA, 0.1% sodium dodecyl sulfate, 1.0% Triton X-100, 1% deoxycholate) with protease inhibitors. The protein concentration was measured The Bio-Rad Protein Assay (Bio-Rad Laboratories, Hercules, CA). 5 to 10 μg of total protein was loaded onto 12.5% or 10% sodium dodecyl sulfate/polyacrylamide gel electrophoresis (PAGE) and transferred onto polyvinylidene difluoride membranes (Millipore, Billerica, MA). […] After washes with TBS-T, chemiluminescence was detected with an Amersham Imager 680 instrument (GE Healthcare) after 1 mL of the SuperSignal West Femto Maximum Sensitivity Substrate (ThermoFisher) was applied to the membranes.
Background: A western blot detects proteins with antibodies after separation by electrophoresis.

Experiment [1] deals with Meta4 organoids. Briefly: FACS analysis of Meta4 organoids (7-AAD/annexin V; CD133/CD166). The format is cell-based, mouse.
The test system of experiment [2] is STAT pathway / STAT3^Y705 phosphorylation. Briefly: Phospho-antibody array in Meta3 and Meta4 organoids. The experiment is classed as cell-based, mouse. Particulars: pyrvinium, 3 days. The text has this:
Shading scale represents standardized log 2(FDR) values. […] Each square represents the signal ratio of the antibody against the unphosphorylated form of the site. FIG. 2E schematically illustrates how the STAT3 and DPPs in RAS/MAPK pathway is affected by Pyr treatment in precancerous organoids.
The top 10 protein candidates were selected, including p-MYC^T358, p-PKCtheta^T538, p-C-Raf^S43 p-STAT3^Y705, p-Pyk2^T580, p-Histone H3.1^S10, p-CREB^T100, p-Pyk2^T881, p-SRF^S77, and p-ERK1/2(p44/42)^T202(FIG. 2C-2D). As the organoids were derived from Mist1-Kras mice, it is not surprising that many proteins on the list are directly related to MAPK and PKC signaling pathways, with the exception of STAT3 (FIG. 2E).

For experiment [3], the system named is Meta4 organoids. Briefly: Meta4 dysplastic organoid growth and cell death (organoid diameter, phase-contrast, H&E, live/dead staining). Particulars: pyrvinium 100 nM, SSTC3 0.2-1 μM, STAT3-IN-1 1 μM, Sttatic 2 μM, 3 days. The experiment is classed as cell-based, mouse. How it is done: (§3) All experiments were repeated at least three times.
(§4) All experiments were performed at least in triplicate.

In another experiment the test system is Meta3 organoids. The experiment can be described thus: Meta3 metaplastic organoid growth and survival (organoid diameter, phase-contrast). The format is cell-based, mouse. Particulars: trametinib 1 μM, pyrvinium 100 nM, 3 days. Here is the method:
as §3, §4

In the next experiment the test system is STAT3-target genes. The experiment can be described thus: Quantitative real time-PCR for STAT3 target genes in Meta4 organoids. The experiment is classed as cell-based, mouse. Particulars: pyrvinium 100 nM. How it is done:
as §2
Two-tailed Mann-Whitney test.

In a further experiment the test system is CD133 and CD166. The experiment can be described thus: qRT-PCR of dysplastic stem cell markers in Meta4 organoids. The format is cell-based, mouse. Particulars: pyrvinium-treated vs DMSO. Here is the method: FIG. 4D-4E show lusters of dysplastic stem cells (DSCs) differentiated cells or damaged cells in a superimposed UMAP plot (FIG. 4D) and their proportions in DMSO-treated and Pyr-treated Meta4 samples (FIG. 4E).
as §1

For the compound `Cc1cc(/C=C/c2ccc3cc(N(C)C)ccc3[n+]2C)c(C)n1-c1ccccc1` [pyrvinium], in the experiment with Wnt-target genes (6 or 24 hours), the Wnt-target gene expression result is on record as “not downregulated”. For the same compound, the “expression of Axin2, Cdca4, Rnf43, and Znrf3” value with Wnt-target genes (24 hours after treatment) is given as “increased”. Moreover, the “expression of myeloid-derived suppressor cell (MDSC)-related markers” value in the experiment with Mist1-Kras mice is listed as “tended to increase, although the changes were not significant”. In the experiment on phospho-ERK (p-ERK) (Meta3), the “phosphorylation of ERK” value was “reduced phosphorylation”. In addition, the p-ERK levels entry in the experiment on phospho-ERK (p-ERK) (Meta4, 3 days) is recorded as “significant decrease”. In addition, the “CD133^+CD166^+ DSCs (FACS)” value with Meta4 organoids [1] (pyrvinium-treated) is “significant decrease”. In the experiment on Meta4 organoids [1] (pyrvinium-treated cells), the “7-AAD and Annexin V expression” value was “increase”. Besides, the “most prominent effect on protein phosphorylation (phospho-array)” value in experiment [2] (Meta3 and Meta4) is “dephosphorylation of proteins related to the STAT pathway”. Moreover, in [2], the “STAT3^Y705 phosphorylation (phospho-array)” value was “loss”. In addition, the “organoid size / growth” value in the experiment with Meta4 organoids [3] is recorded as “reduction in organoid size”. Moreover, the “organoid size compared to control organoids treated with DMSO” value in the experiment with Meta3 organoids was “significant reduction in size”. The “expression of several STAT3-target genes, including Cyclin B1 and Pim-1” value in the experiment with STAT3-target genes is reported as “downregulated”. In addition, the “CD133 and CD166 gene expression” value in the experiment with CD133 and CD166 is “decreases”.
